One compound from patent US20100261682A1, “Method and Means for the Treatment of Cachexia” (Bioneris AB, priority 2007, published 2010) can be followed below.

In one experiment the test system is eIF2α. As to the kind of experiment: Western blot of gastrocnemius muscle: phospho eIF2α/total eIF2α. The format is in vivo, NMRI mice. As to conditions: 40 mg/kg; tumour-bearing animals. On the procedure:
(§1) Administration of alpha-trinositol. Mice (n=6) bearing the MAC16 tumour were treated with AT (40 mg/kg) s.c., 3 times per day, for 5 days, while a control group received PBS. Protein synthesis and degradation were determined by the incorporation and release of L-[2,6-^3H]phenylalanine, as described in Smith et al., Cancer Res., 2005; 65:277-83. On the fourth day of treatment half of the group administered 0.4 mmol/L L-[2,6-^3H]phenylalanine in PBS (100 μl) by i.p. administration.
(§2) Western blot analysis Gastrocnemius muscle (10 mg) was homogenised in Phosphosafe™ Extraction Reagent (500 μl) and centrifuged at 15000 g for 15 min. Samples of the cytosolic proteins (5 μg) were loaded on either a 10% (mTOR, myosin, eIF4E and eIF4G) 12% (PKR, eIF2α and actin) or 15% (4E-BP1) sodium dodecylsulphate-polyacrylamide gel (SDS-PAGE) and electrophoresed at 180 V for approximately 1 h. The extent of phosphorylation of 4E-BP1, and the association of 4E-BP1 and eIF4G with eIF4E was determined by Western blotting when eIF4E was extracted from the muscle samples by m^7GTP-Sepharose 4B-affinity binding, as previously described Eley ey al., Biochem J., 2007; 407:113-20, by loading 20 μg of protein. […] Blots were scanned by a densitometer to quantify differences.
(In general: Immunoblotting shows a protein as a band on a membrane.)

Experiment [1] concerns 20S proteasome α-subunits. The experiment can be described thus: Western blot of gastrocnemius muscle: 20S proteasome α-subunits. It is filed as in vivo, NMRI mice. Conditions: 40 mg/kg s.c., 3 times per day. On the procedure: as §1, §2
The test system of experiment [2] is PIF-induced chymotrypsin-like enzyme activity (proteasome) in C2C12 myotubes. As to the kind of experiment: PIF-induced chymotrypsin-like enzyme activity in C2C12 myotubes. As to conditions: AT 100 μM, 4.2 nM PIF. The format is cell-based, murine. An excerpt: Protein degradation induced by PIF is mediated through up-regulation of the ubiquitin-proteasome pathway (Tisdale et al., 2004, Br. J. Cancer). […] A hexanoyl ester of AT (lipid soluble AT) has been produced as a slow release form, after hydrolysis by esterase.

The test system of another experiment is caspase 8. The experiment can be described thus: Caspase 8 activity in gastrocnemius muscle. It is filed as in vivo, NMRI mice. Conditions: 40 mg/kg; still significantly higher than in non-tumour-bearing animals. On the procedure: as §1
Determination of Caspase activity. The activity of caspase 3 was determined by the release of 7-amino-4-methylcoumarin (AMC) from the specific substrate AcDEVD-AMC in the presence or absence of the caspase 3 inhibitor AcDEVD-CHO. […] The supernatant (50 μg protein) was incubated with the caspase 3 substrate for 1 h and the increase in fluorescence due to AMC was determined at an excilation wavelength of 370 nm and an emission wavelength of 430 nm. […] The increase in fluorescence due to the release of 7-amino-4-trifluoro-methylcoumarin (AFC) was measured with an excitation wavelength of 400 nm and an emission of 505 nm.

The next experiment deals with myosin. As to the kind of experiment: Western blot of gastrocnemius muscle: myosin. The format is in vivo, NMRI mice. As to conditions: 40 mg/kg; treatment for 4 days; reduced by 90% in untreated tumour-bearing mice. The method, then:
as §1, §2

Experiment [3] has as its system Ang II induced protein degradation in murine myotubes. As to the kind of experiment: Ang II-induced protein degradation in murine myotubes. It is filed as cell-based. Conditions: AT 100 μM, 2 h prior to addition of Ang II. On the procedure:
To investigate the mechanism by which AT protects lean body mass in cachexia, further experiments were carried out in vitro using murine myotubes as a surrogate model of skeletal muscle. Incubation with either PIF or angiotensin II (Ang II) induced protein degradation with a characteristic bell-shaped dose-response curve as previously reported (Smith et al., 2004, Br. J. Cancer, and Tisdale et al., 2006, Cell. Sig) with the maximal effect of PIF at 4.2 nM and Ang II at 0.5 μM (FIGS. 5 and 8).

For another experiment, the system named is 4E-BP1. The experiment can be described thus: Western blot of gastrocnemius muscle: phosphorylation of 4E-BP1. It is filed as in vivo, NMRI mice. Conditions: 40 mg/kg; 60% reduction in untreated tumour-bearing animals. The method, then:
as §1, §2

Another experiment relates to 20S proteasome. The experiment can be described thus: 20S proteasome 'chymotrypsin-like' enzyme activity in gastrocnemius muscle. The format is in vivo, NMRI mice. Conditions: 40 mg/kg s.c., 3 times per day; after 4 days treatment. On the procedure:
as §1
Determination of proteasome activity The activity of the 20S proteasome was determined as the ‘chymotrypsin-like’ enzyme activity, the predominant proteolytic activity of the β5 subunits of the proteasome. Gastrocnemius muscles were rinsed with ice-cold PBS and homogenised in 20 mmol/L Tris-HCl (pH 7.5), 2 mmol/L ATP, 5 mmol/L MgCl2 and 1 mmol/L DTT followed by sonication. The sonicate was centrifuged for 10 minutes at 18,000×g at 4° C., and enzyme activity in the supernatant was determined by the method of Orino et al., FEBS Lett., 1991; 284:206-10, by determining the release of amino methyl coumarin (AMC) from the fluorogenic substrate LLVY-AMC. Activity was measured in the absence and presence of the specific proteasome inhibitor lactacystin (10 mmoles/L). Only lactacystin suppressible activity was considered to be proteasome specific.

The subject of a further experiment is mTOR. The experiment can be described thus: Western blot of gastrocnemius muscle: phosphorylated (Ser2448) mTOR. It is filed as in vivo, NMRI mice. Conditions: 40 mg/kg; after 4 days treatment. On the procedure: as §1, §2

`O=P(O)(O)O[C@@H]1[C@H](OP(=O)(O)O)[C@H](O)[C@@H](O)[C@H](O)[C@H]1OP(=O)(O)O` [alpha-trinositol, 1-D-Myo-inositol 1,2,6-triphosphate]: the “expression of phospho eIF2α (ratio to total eIF2α)” value in the experiment on eIF2α is given as “significant decrease”. For the same compound, the “expression of the 20S proteasome α-subunits in gastrocnemius muscle” value in [1] was “down-regulates”. Besides, the “effect on PIF-induced chymotrypsin-like enzyme activity” value in experiment [2] is “completely attenuated”. Further, in the experiment with caspase 8, the “activity of caspase-8 in gastrocnemius muscle” value was “significantly reduced”. The “myosin expression in gastrocnemius muscle” value in the experiment on myosin was “returned to values at the same level as in non-tumour animals”. Moreover, the “effect on Ang II-induced protein degradation” value in [3] is listed as “completely attenuated protein degradation down to basal levels”. In addition, the “tumour-induced reduction in phosphorylation of 4E-BP1 (Thr37/46)” value in the experiment on 4E-BP1 was “completely attenuated”. Also, in the experiment on 20S proteasome, the “chymotrypsin activity (20S proteasome activity) in gastrocnemius muscle” value is recorded as “reduced down to levels found in normal non-tumour bearing mice”. The “level of the phosphorylated (Ser2448) form of mTOR in gastrocnemius muscle” value in the experiment on mTOR is recorded as “completely reversed up to the values found in non tumour-bearing animals”.
